Laboratory results taken from the NIST ThermoML archive (doi:10.1021/je060271a).

Conditions: Liquid, Vibrating tube method

CCCCC(=O)OCC(COC(=O)CCCC)(COC(=O)CCCC)COC(=O)CCCC [pentaerythritol tetrapentanoate]
Conditions	mass density [kg/m3]
303.16 K, 794.63 kPa	1011.4
303.16 K, 4758.7 kPa	1013.9
303.16 K, 10737 kPa	1017.8
303.16 K, 10776 kPa	1017.7
303.16 K, 19666 kPa	1023
303.16 K, 25722 kPa	1026.7
303.16 K, 33332 kPa	1030.7
303.16 K, 33572 kPa	1030.8
303.16 K, 34311 kPa	1031.2
303.16 K, 34317 kPa	1031.3
303.16 K, 34322 kPa	1031.4
303.16 K, 34329 kPa	1031.2
303.16 K, 34349 kPa	1031.2
323.14 K, 736.7 kPa	995.1
323.14 K, 775.7 kPa	995.1
323.14 K, 800.8 kPa	995.2
323.14 K, 1023.7 kPa	995.3
323.14 K, 1214.2 kPa	995.6
323.14 K, 1242.9 kPa	995.4
323.14 K, 1267.4 kPa	995.5
323.14 K, 1292.7 kPa	995.4
323.14 K, 1352.1 kPa	995.6
323.14 K, 1554.7 kPa	995.8
323.14 K, 1591.2 kPa	995.7
323.14 K, 1625.4 kPa	995.6
323.14 K, 1652.3 kPa	995.8
323.14 K, 1677.1 kPa	995.8
323.14 K, 1847.7 kPa	995.8
323.14 K, 1899.2 kPa	995.8
323.14 K, 1926.8 kPa	996
323.14 K, 1959.1 kPa	996
323.14 K, 1986.5 kPa	996.1
323.14 K, 2181.7 kPa	996.1
323.14 K, 2215.2 kPa	996.1
323.14 K, 2249 kPa	996.2
323.14 K, 2284.1 kPa	996.3
323.14 K, 2935.8 kPa	996.6
323.14 K, 2965.1 kPa	996.7
323.14 K, 3225.9 kPa	996.8
323.14 K, 3237 kPa	996.9
323.14 K, 3248.4 kPa	996.9
323.14 K, 3385 kPa	996.9
323.14 K, 7926.5 kPa	1000.3
323.14 K, 7971.9 kPa	1000.2
323.14 K, 9459.5 kPa	1001.1
323.14 K, 9766.4 kPa	1001.5
323.14 K, 9799.5 kPa	1001.4
323.14 K, 9832.9 kPa	1001.5
323.14 K, 9906.9 kPa	1001.6
323.14 K, 9941.6 kPa	1001.6
323.14 K, 10052 kPa	1001.6
323.14 K, 10094 kPa	1001.7
323.14 K, 10244 kPa	1001.9
323.14 K, 11507 kPa	1002.6
323.14 K, 12708 kPa	1003.4
323.14 K, 13903 kPa	1004.3
323.14 K, 14014 kPa	1004.2
323.14 K, 14206 kPa	1004.4
323.14 K, 14241 kPa	1004.3
323.14 K, 19359 kPa	1007.7
323.14 K, 19418 kPa	1007.7
323.14 K, 19454 kPa	1007.7
323.14 K, 19485 kPa	1007.9
323.14 K, 28758 kPa	1013.5
323.14 K, 28848 kPa	1013.6
323.14 K, 28889 kPa	1013.5
323.14 K, 28930 kPa	1013.6
323.14 K, 29171 kPa	1013.8
323.14 K, 29205 kPa	1013.9
323.14 K, 29234 kPa	1013.8
323.14 K, 29268 kPa	1014
323.14 K, 29296 kPa	1013.9
323.15 K, 106.09 kPa	994.8
323.15 K, 106.1 kPa	994.7
323.15 K, 106.26 kPa	994.6
323.15 K, 106.44 kPa	994.7
323.15 K, 107.13 kPa	994.6
323.15 K, 108 kPa	994.6
323.15 K, 108.53 kPa	994.7
323.15 K, 110.43 kPa	994.6
323.15 K, 112.87 kPa	994.7
323.15 K, 115.82 kPa	994.7
323.15 K, 118.77 kPa	994.7
323.15 K, 121.05 kPa	994.6
323.15 K, 124.52 kPa	994.7
323.15 K, 129.04 kPa	994.6
323.15 K, 133.91 kPa	994.8
323.15 K, 140.34 kPa	994.7
323.15 K, 147.99 kPa	994.8
323.15 K, 159.99 kPa	994.7
323.15 K, 173.53 kPa	994.6
323.15 K, 190.4 kPa	994.6
323.15 K, 218.21 kPa	994.8
323.15 K, 249.16 kPa	994.8
323.15 K, 296.4 kPa	994.7
323.15 K, 338.3 kPa	994.8
323.15 K, 358.5 kPa	994.8
323.15 K, 373.8 kPa	994.9
323.15 K, 387.5 kPa	994.7
323.15 K, 401.6 kPa	994.8
323.15 K, 416.9 kPa	994.9
323.15 K, 429 kPa	995
323.15 K, 441.9 kPa	995
323.15 K, 455.3 kPa	995
323.15 K, 472.5 kPa	994.9
323.15 K, 488.1 kPa	994.9
323.15 K, 504.6 kPa	995
323.15 K, 525.8 kPa	995
323.15 K, 543.7 kPa	995
323.15 K, 564 kPa	995
323.15 K, 582.3 kPa	995
323.15 K, 601.7 kPa	995
323.15 K, 627.6 kPa	995.1
323.15 K, 645.4 kPa	995.1
323.15 K, 665.2 kPa	995.1
323.15 K, 681.1 kPa	995.1
323.15 K, 697.1 kPa	995
323.15 K, 718 kPa	995.2
323.15 K, 755.5 kPa	995
323.15 K, 823.3 kPa	995.1
323.15 K, 846.7 kPa	995.1
323.15 K, 871.2 kPa	995.4
323.15 K, 903.5 kPa	995.2
323.15 K, 930.1 kPa	995.3
323.15 K, 958.1 kPa	995.3
323.15 K, 984.8 kPa	995.4
323.15 K, 1006.3 kPa	995.3
323.15 K, 1041.8 kPa	995.4
323.15 K, 1060 kPa	995.3
323.15 K, 1082.2 kPa	995.4
323.15 K, 1101.7 kPa	995.3
323.15 K, 1121.7 kPa	995.4
323.15 K, 1146.9 kPa	995.5
323.15 K, 1168.2 kPa	995.4
323.15 K, 1191 kPa	995.4
323.15 K, 1319.1 kPa	995.2
323.15 K, 1380.2 kPa	995.5
323.15 K, 1416.2 kPa	995.6
323.15 K, 1447.4 kPa	995.6
323.15 K, 1479.7 kPa	995.8
323.15 K, 1512.7 kPa	995.6
323.15 K, 1698.1 kPa	995.8
323.15 K, 1720.3 kPa	995.8
323.15 K, 1747.2 kPa	995.8
323.15 K, 1770.3 kPa	995.8
323.15 K, 1793.7 kPa	995.8
323.15 K, 1822.9 kPa	995.9
323.15 K, 1873.2 kPa	995.9
323.15 K, 2015.2 kPa	996.1
323.15 K, 2044.7 kPa	996.1
323.15 K, 2080.6 kPa	996
323.15 K, 2111.5 kPa	996.1
323.15 K, 2143.5 kPa	996.3
323.15 K, 2327.6 kPa	996.2
323.15 K, 2364.9 kPa	996.1
323.15 K, 2402.4 kPa	996.3
323.15 K, 2448.3 kPa	996.3
323.15 K, 2487.7 kPa	996.4
323.15 K, 2528.3 kPa	996.4
323.15 K, 2578.1 kPa	996.3
